Test results reported in patent US20040162274A1, “Inhibition of steroid synthesis by use of progesterone or a progesterone receptor agonist” (priority 2002, published 2004).

Assays:
Format in all cases: cell-based, rat
[1] = system: isolated Leydig cells of rats; test: hCG-induced cAMP production in isolated Leydig cells of rats (ELISA); conditions: for amount of cAMP formed in the cells in response to gonadotropic stimulation: FIGS. 2 and 3
Protocol: (§1) The testicles of young (three months old) and old (23-24 months old) Wistar rats (Charles River, Sulzfeld, Germany) were removed immediately after killing the rats by means of carbon dioxide anaesthesia and cervical dislocation.
(§2) In order to isolate and to purify the Leydig cells from the testicles of young and old rats, the decapsulated testicular mass of healthy Wistar rats was treated with collagenase (0.25 mg/ml) for 30 minutes at room temperature as described by Mukhopadhyay et al., Biochem. J., 239:463-467 (1986a), Mukhopadhyay et al., FEBS Lett., 202:111-116 (1986b)). The homogenous cell suspension so obtained was filtered through a nylon filter to obtain an impure Leydig cell preparation. After further purification by means of a Percoll gradient, the final number of high-grade purified Leydig cells was determined using a Neubauer chamber.
Aliquots of 100,000 cells per incubation tube were used for the experiments in which cAMP was measured. The cells were pre-incubated for 3 hours and subsequently incubated for 30 minutes with or without the addition of different concentrations of hCG as a surrogate for LH. In order to investigate the effect of the different steroids, Leydig cells were subjected to steroids for 3 hours as described. The cells were then stimulated with hCG (3 ng/ml) for 30 minutes. Incubation was stopped by the addition of absolute ethanol (final alcohol concentration ca. 80%) and subsequent mixing by means of vortices. The ethanol extract was evaporated until dry, and the residue dissolved in 1 ml of MEM, which contained 0.1% sodium azide. The amount of cAMP formed was determined by means of a specific ELISA, which was carried out as described in Budnik and Mukhopadhyay, FEBS Letters, 419:4-8 (1997). However, commercially available ELISAs, such as, for example, CM 59221 (IBL, Hamburg, Germany) or DE 0355 or DE 0450 (R&D Systems GmbH, Wiesbaden, Germany) can also be used.
Leydig cells were subjected to 3 different steroids for 3 hours (see FIG. 1). Subsequently, the cells were stimulated over 30 minutes with hCG (human chorion gonadotropin; 3 ng/ml) as a surrogate for LH.
The amount of cAMP formed was determined using a specific ELISA.

[2] = system: isolated Leydig cells of rats; test: hCG-induced testosterone production in isolated Leydig cells of rats; conditions: different concentrations for 3 hours, then hCG 5 ng/ml for 3 hours; testosterone in medium; FIG. 3
Protocol: as §1, §2
Similar culture conditions as described above were used for experiments, in which testosterone was measured. However, aliquots of 50,000 cells per incubation tube were used. […] The content of testosterone was determined by means of specific, commercially available kits (IBL, Hamburg). The amount of testosterone for 100,000 cells was calculated on the basis of the measured values.
Both R5020 and drospirenone are clearly, structurally different from testosterone. […] Then, the quantity of testosterone that accumulated in the medium was measured.

StAR protein = test: StAR expression in Leydig cells in vitro (northern blot)
Description: RNA was isolated from 1.5×10^6 high-quality cleaned Leydig cells, which were cultivated in 12-well plates (750,000 cells/well). The RNA was extracted in accordance with a modified single-step method of Chomczynski and Sacchi, Anal. Biochem., 162:156-159 (1987), using the small-scale phenol-free RNA isolation kit (Ambion Inc., Austin, Tex.). According to the size, the isolated RNA was separated by gel electrophoresis in a 1.2% agarose gel using the formaldhyde/morpholino-propane sulphonic acid method (Sambrook et al., Vol.1, 7.37, 7.39-7.52, Nolan, C. (Ed), Cold Spring Harbor Laboratory Press, Cold Spring Harbor, N.Y.). The transfer (blotting) of the RNA from the gel onto a nylon membrane (nytran, Schleicher and Schüll, Dassel, Germany) was carried out by capillary transfer using a downwards-directed transfer for 4 hours in accordance with the manufacturer's instructions (Ambion Inc., Austin, Tex.; AMS Biotechnology, Wiesbaden, Germany) with modifications by Chomczynski, P., Anal. Biochem., 201:134-139 (1992). […]
As the gestagens mentioned above apparently both have inhibitory effects on cAMP and on the production of steroids in gonadotropin-stimulated Leydig cells, the inhibitory effects of progesterone on the quantity of StAR protein expressed were analysed. […] At the end of the incubation, total RNA was extracted and StAR protein expression was analysed using northern blots. […]

CCC(=O)[C@@]1(C)CC[C@H]2[C@@H]3CCC4=CC(=O)CCC4=C3CC[C@@]21C [R5020]
amount of cAMP formed in the cells in response to gonadotropic stimulation [1]: drastically reduced
effect on hCG-induced production of testosterone [2]: able to inhibit the production of testosterone

C[C@]12CCC(=O)C=C1[C@@H]1C[C@@H]1[C@H]1[C@@H]3[C@@H]4C[C@@H]4[C@@]4(CCC(=O)O4)[C@@]3(C)CC[C@@H]12 [drospirenone]
amount of cAMP formed in the cells in response to gonadotropic stimulation [1]: drastically reduced
effect on hCG-induced production of testosterone [2]: able to inhibit the production of testosterone

CC(=O)[C@H]1CC[C@H]2[C@@H]3CCC4=CC(=O)CC[C@]4(C)[C@H]3CC[C@]12C [progesterone, 4-pregnene-3,20-dione]
effect on cAMP reaction to gonadotropin stimulation ([1]; Leydig cells subjected to steroid 3 hours, then hCG 3 ng/ml 30 minutes, FIG. 1): significantly inhibit
effect on hCG-induced cAMP formation at 0.1 μmol/l ([1]; concentration 0.1 μmol/l (10^−7 mol/l)): almost no effects
effect on hCG-induced cAMP formation, dose-response curve ([1]; dose-response curve, FIG. 2): dose-dependent inhibitory effect
effect on hCG-induced cAMP formation at higher concentrations ([1]; higher concentrations, up to 2.5 μmol/l): clearly inhibitory effects
hCG-stimulated amounts of StAR protein (StAR protein; pre-incubation 3 hours, then hCG 5 ng/ml 3 hours, Lane 4 vs Lane 2, FIG. 4): significant reduction
expression of StAR protein in cells not treated with a gonadotropin (StAR protein; pre-treatment 3 hours, no hCG, Lane 3, FIG. 4): did not significantly affect
